Assay results: ChEMBL document CHEMBL1149016, “Plant anticancer agents, XLII. Cytotoxic constituents from Wikstroemia elliptica” (1986)
≈ marks a conversion by molar mass, not a printed value.

What follows are molecules tested on P388 (assay: Cytotoxicity against mouse P388 cells). Details: read-out: ED50 (the source's name).
Type: functional

Row | Compound | EC50
1 | COc1cc2cc(Oc3ccc4ccc(=O)oc4c3)c(=O)oc2cc1O [DAPHNORETIN] | 3.4 µg/mL (≈ 9.65 µM)
2 | COc1cc([C@H]2OC[C@H]3[C@@H]2CO[C@@H]3c2cc(OC)c(O)c(OC)c2)cc(OC)c1O (racemic) [SYRINGARESINOL] | 0.56 µg/mL (≈ 1.34 µM)
3 | O=c1ccc2ccc(O)cc2o1 [UMBELLIFERONE] | 3.1 µg/mL (≈ 19.1 µM)
4 | COc1cc(C[C@H]2CO[C@H](c3ccc(O)c(OC)c3)[C@H]2CO)ccc1O (racemic) [LARICIRESINOL] | 0.38 µg/mL (≈ 1.05 µM)
5 | COc1cc(C[C@@H]2CO[C@@H](c3cc(OC)c(O)c(OC)c3)[C@@H]2CO)ccc1O (racemic) | 0.33 µg/mL (≈ 0.845 µM)
